# Source: patent US12233047B2, “Pharmaceutical combination and use thereof” (ASCENTAGE PHARMA (SUZHOU) CO., LTD., priority 2019, dated 2025)
# Experiments:
# [1] = test system: Human AML cell line MOLM-13 (FLT3-ITD positive and wild type TP53 gene); assay: Human MOLM-13 AML systemic mouse xenograft model, survival; assay type: in vivo; settings: MOLM-13 systemic model, Compound 23 10 mg/kg, Compound C 20 mg/kg, p.o. q2d × 21 d
# Protocol: The formulation of Compound C was prepared as homogenous suspension in 0.2% HPMC using a mortar. The drug suspension was prepared every three days or once a week and placed at 4° C. when not in use. Before use, the drug suspension was placed at room temperature and shaken to mix well. The formulation of Compound C was administered to mice via p.o. in a volume of 10 mL/kg.
# The formulation of Compound 23 was prepared in 0.2% HPMC in a mortar to generate homogenous suspension. The drug suspension was prepared once every other day and placed at 4° C. when not in use. Before use, the drug suspension was placed at room temperature and shaken well. The formulation of Compound 23 was administered to mice via p.o. in a volume of 10 mL/kg.
# MOLM-13 cell lines (Human AML cell line MOLM-13 (FLT3-ITD positive and wild type TP53 gene)) were maintained in RPMI-1640 (Cat. C11875500BT, GIBCO) with 10% fetal bovine serum (Cat. 10099-141, GIBCO), 1% L-glutamine, 100 U/mL penicillin G and 100 μg/mL streptomycin (Cat. GNM15140, Hangzhou Geno Biomedical Technology Co., Ltd). Cells were incubated at 37° C. in a humidified incubator with 5% CO2.
# Six to eight weeks old, female, NOD SCID and BALB/c nude mice were used. Animals were obtained from Vital River Laboratories (VRL, Beijing, China, license number SCXK(J) 2012-0001 and SCXK(J) 2016-0006). The body weights were 17-24 g.
# MOLM-13 systemic tumor model were established by injecting tumor cells into the tail vein (10×10^6 cells/mouse) under the sterile condition. To establish the MOLM-13 systemic model, all animals were intraperitoneally injected (i.p.) with cyclophosphamide (150 mg/kg) for two consecutive days before the inoculation of MOLM-13 cells. On the third day after cell inoculation, animals were randomized into 10 mice per group and treatment was initiated (day 1) according to Table 2.
# The animals were euthanized when the experimental animals had symptoms such as weight loss and weight loss greater than 20%, limb paralysis, tumor metastasis to the eye causing ocular protrusion, tumor metastasis to the abdominal cavity causing abdominal enlargement. These severe health issues were considered as the same as animal death caused by tumor growth and the affected animals were sacrificed immediately.
# The date of the last mouse died (the last measurement) was used for analysis of median overall survival and the generation of Kaplan-Meier plots. Survival curves of different treatment groups were compared using log-rank test with Bonferroni's multiple test. All data were analyzed in SPSS version 18.0 (IBM, Armonk, NY, U.S.A.). Prism version 6 (GraphPad Software Inc., San Diego, CA, U.S.A.) was used for graphic presentation.
# [2] = test system: Human AML cell line MV-4-11 (FLT3-ITD positive and wild type TP53 gene); assay: Human MV-4-11 AML subcutaneous mouse xenograft model; assay type: in vivo; settings: MV-4-11 subcutaneous xenograft, Compound 23 10 mg/kg, Compound C 30 mg/kg
# Protocol: The formulation of Compound C was prepared as homogenous suspension in 0.2% HPMC using a mortar. The drug suspension was prepared every three days or once a week and placed at 4° C. when not in use. Before use, the drug suspension was placed at room temperature and shaken to mix well. The formulation of Compound C was administered to mice via p.o. in a volume of 10 mL/kg. […] The drug suspension was prepared once every other day and placed at 4° C. when not in use. Before use, the drug suspension was placed at room temperature and shaken well. […] MV-4-11 cells (Human AML cell line MV-4-11 (FLT3-ITD positive and wild type TP53 gene)) were maintained in IMDM (Cat. C12440500BT, GIBCO), with 10% fetal bovine serum (Cat. 10099-141, GIBCO), 1% L-glutamine, 100 U/mL penicillin G and 100 μg/mL streptomycin (Cat. GNM15140, Hangzhou Geno Biomedical Technology Co., Ltd). Cells were incubated at 37° C. in a humidified incubator with 5% CO2. Six to eight weeks old, female, NOD SCID and BALB/c nude mice were used. Animals were obtained from Vital River Laboratories (VRL, Beijing, China, license number SCXK(J) 2012-0001 and SCXK(J) 2016-0006). The body weights were 17-24 g. Randomization was conducted when the size of xenograft tumors reached 100-150 mm^3. Based on the size of the tumor and body weight, animals were randomly assigned into experimental groups. […] MV-4-11 subcutaneous xenograft models were established by subcutaneously injecting tumor cells (1×10^7 cells (50% Matrigel)/mouse) into the right flank of the mouse under the sterile condition. When the tumors reached an appropriate size (100-200 mm^3), mice were randomized into 6 mice per group and treatment was initiated (day 1) according to Table 4. [table] The tumors sizes and animal body weights were measured twice a week. Tumor volumes were estimated from measurements of two diameters of the individual tumors as follows: Tumor Volume (mm^3)=(a×b^2)/2 Relative tumor volume (RTV) were calculated according to the follows: RTV=Vt/V1 where V1 and Vt were respectively the average tumor volume on the first day of treatment (day 1) and the average tumor volume on a certain time point (day T). Standard NCI procedures were used to calculate tumor parameters (Teicher, B. A. (2011). “Tumor Models in Cancer Research.” Second Edition, Human Press). Percent tumor growth inhibition (% T/C) was calculated as the mean RTV of treated tumors (T) divided by the mean RTV of control tumors (C)×100%. […] A body weight loss (mean of group) of greater than 20%, or greater than 20% of drug deaths are considered to indicate an excessively toxic dosage. The synergistic analysis was performed using the following formula described in Clarke R. Issues in experimental design and endpoint analysis in the study of experimental cytotoxic agents in vivo in breast cancer and other models[J]. Breast Cancer Research & Treatment, 1997, 46(2-3):255-278, which is incorporated by reference in its entirety: expected value=(A/C)×(B/C); actual value=(AB)/C; A: RTV of drug A; B: RTV of drug B; C=RTV of the vehicle control group; AB=RTV of the combination group. Ratio=expected/actual value. […] A ratio=1 indicates the two drugs have additive effects. A ratio <1 indicates the two drugs may have antagonist effects. According to the earlier publication (Gao, H., et al. (2015). “High-throughput screening using patient-derived tumor xenografts to predict clinical trial drug response” Nat Med 21: 1318), additional measurements of response included stable disease (SD), partial tumor regression (PR), and complete regression (CR) were determined by comparing tumor volume change at day t to its baseline: tumor volume change (%)=(Vt−V1)/V1. […] For each time t, the average of tumor volume change from t=1 to t was also calculated. […]
smiles,measurement,setting,value
"Cc1ccc(C(=O)Nc2ccc(CN3CCN(C)CC3)c(C(F)(F)F)c2)cc1C#Cc1cnc2[nH]ncc2c1 [Compound 23, 3-(2-(1H-pyrazolo[3,4-b]pyridin-5-yl)ethynyl)-4-methyl-N-(4-((4-methylpiperazin-1-yl)methyl)-3-(trifluoromethyl)phenyl)benzamide]",Median survival time of mice,[1]; vehicle 19 days,29 days
same,Prolonged survival time of mice,[1]; versus vehicle,10 days
same,Tumor weight on D 22 (Mean ± SEM),"[2]; day 22, p.o. q2d × 22 d, vehicle 2.29 ± 0.29, in g (unit assumed)",0.67 ± 0.11
same,T/C(%)@D 22,"[2]; mean RTV treated/control, day 22, p.o. q2d",28.6%
same,RTV@D 22,"[2]; relative tumor volume day 22, p.o. q2d, vehicle 18.2 ± 3.3",5.2 ± 0.9
